# Assay results as given in ChEMBL document CHEMBL1764965, “Contribution of cinnamic acid analogues in rosmarinic acid to inhibition of snake venom induced hemorrhage” (Bioorg Med Chem, 2011).
# pIC50: −log10 of the molar value.
# Organism: Mus musculus
# Test: cells
# Assay type: functional, organism-based, ddY
# Details: not given; call rule not given here
row,Structure (SMILES),IC50
1,OC/C=C/c1ccccc1 [CINNAMIC ALCOHOL],Not Active
2,O=C(O)/C=C\c1ccc(O)c(O)c1O,Not Active
3,O=C(O)CCc1ccc(O)c(O)c1 [DIHYDROCAFFEIC ACID],Not Active
4,COC(=O)/C=C/c1ccc(O)c(O)c1 [METHYLCAFFEATE],Not Active
5,O=C(O)/C=C\c1cc(O)c(O)cc1O,Not Active
6,O=C(CCc1ccc(O)c(O)c1)O[C@H](Cc1ccc(O)c(O)c1)C(=O)O,Not Active
7,O=C(O)/C=C\c1cc(O)c(O)c(O)c1,Not Active
8,COc1cc(CC(O)C(=O)O)ccc1O (stereo unspecified),Not Active
9,O=C/C=C/c1ccccc1 [CINNAMALDEHYDE],Not Active
10,COC(=O)/C=C/c1ccccc1 [E-METHYL CINNAMATE],Not Active
11,COC(=O)[C@@H](Cc1ccc(O)c(O)c1)OC(=O)C=Cc1ccc(O)c(O)c1 (mixture of isomers) [ROSMARINIC ACID METHYL ESTER],Not Active

# Same assay, conditions: Mus musculus, ddY; read-out: IC50
row,Structure (SMILES),pIC50
1,O=C(O)/C=C/c1cc(O)c(O)c(O)c1,6.74
2,O=C(O)/C=C/c1ccccc1O [O-COUMARIC ACID],6.72
3,C/C=C/C=C/C(=O)O [SORBIC ACID],6.68
4,O=C(O)/C=C/c1ccc(O)c(O)c1 [CAFFEIC ACID],6.72
5,O=C(/C=C/c1ccc(O)c(O)c1)O[C@@H]1C[C@](O)(C(=O)O)C[C@@H](O)[C@H]1O [CHLOROGENIC ACID],6.70
6,O=C(O)/C=C/c1cccc(O)c1,6.74
7,O=C(O)/C=C/c1ccc(O)cc1O,6.68
8,O=C(C=Cc1ccc(O)c(O)c1)O[C@H](Cc1ccc(O)c(O)c1)C(=O)O (mixture of isomers) [(E/Z)-ROSMARINIC ACID],6.22
9,"COc1ccc(/C=C/C(=O)O)cc1OC [O,O'-DIMETHYLCAFFEIC ACID]",6.62
10,O=C(O)/C=C/C=C/c1ccccc1 [JUAREZIC ACID],6.66
11,COc1cc(/C=C/C(=O)O)ccc1O [FERULATE],6.70
12,O=C(O)/C=C/c1ccc(O)cc1 [COUMARIC ACID],6.72
13,O=C(O)/C=C/c1ccccc1 [CINNAMIC ACID],6.74
14,C/C=C/C(=O)O [CROTONIC ACID],6.66
15,O=C(/C=C/c1ccc(O)c(O)c1)O[C@H](Cc1ccc(O)c(O)c1)C(=O)O [ROSMARINIC ACID],6.82
